Data from patent US12358960B2, “Selective targeting of ubiquitin- and ubiquitin-like E1-activating enzymes by structurally-stabilized peptides” (Dana-Farber Cancer Institute, Inc., priority 2019, dated 2025).
“Also recorded” adds a separate entry of the source. Bridge positions count the residues as written; N and C are the ends. Square brackets hold non-standard residues; d marks the D form. Peptide text beside a SMILES is read from it. R8 = C=CCCCCCC[C@@](C)(N)C(=O)O; S5 = C=CCCC[C@](C)(N)C(=O)O; Nle = CCCC[C@H](N)C(=O)O

Columns and labels:
UBA1 [1] = target: T1, UBA1 (Homo sapiens, UniProt P22314); test: Fluorescence polarization binding assay; details: presence and absence of ubiquitin and ATP
T1 sequence (P22314 1-1058): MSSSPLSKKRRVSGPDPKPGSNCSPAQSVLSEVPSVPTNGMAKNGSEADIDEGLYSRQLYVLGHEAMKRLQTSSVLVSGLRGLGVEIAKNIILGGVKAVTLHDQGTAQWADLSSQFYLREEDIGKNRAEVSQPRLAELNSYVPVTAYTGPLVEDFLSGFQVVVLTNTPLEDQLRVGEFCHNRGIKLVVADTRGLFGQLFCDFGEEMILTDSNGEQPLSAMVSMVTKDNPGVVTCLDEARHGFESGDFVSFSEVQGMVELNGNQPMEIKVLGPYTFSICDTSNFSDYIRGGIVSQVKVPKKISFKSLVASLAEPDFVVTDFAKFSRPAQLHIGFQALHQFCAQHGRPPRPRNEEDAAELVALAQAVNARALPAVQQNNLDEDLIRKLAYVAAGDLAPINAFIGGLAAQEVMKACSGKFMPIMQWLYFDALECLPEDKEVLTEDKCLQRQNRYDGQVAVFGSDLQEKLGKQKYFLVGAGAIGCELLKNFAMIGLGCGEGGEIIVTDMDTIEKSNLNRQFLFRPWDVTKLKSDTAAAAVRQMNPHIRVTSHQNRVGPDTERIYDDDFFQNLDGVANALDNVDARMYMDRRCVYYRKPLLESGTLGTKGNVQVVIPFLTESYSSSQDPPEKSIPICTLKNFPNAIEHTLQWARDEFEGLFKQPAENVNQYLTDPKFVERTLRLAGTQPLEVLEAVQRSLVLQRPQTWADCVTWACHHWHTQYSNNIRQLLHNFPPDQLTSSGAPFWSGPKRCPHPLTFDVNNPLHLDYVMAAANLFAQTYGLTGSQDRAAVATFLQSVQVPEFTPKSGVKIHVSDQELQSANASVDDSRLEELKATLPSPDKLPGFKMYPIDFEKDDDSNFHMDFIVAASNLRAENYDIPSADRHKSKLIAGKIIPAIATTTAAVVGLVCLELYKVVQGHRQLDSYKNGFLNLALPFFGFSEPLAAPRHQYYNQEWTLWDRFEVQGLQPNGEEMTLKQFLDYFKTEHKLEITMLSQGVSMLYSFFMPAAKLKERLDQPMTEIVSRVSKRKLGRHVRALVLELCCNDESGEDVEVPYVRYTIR
Text: (§1) In vitro Binding Assays: To assess the binding and affinity of peptidomimetic macrocycles and peptidomimetic precursors to acceptor proteins, a fluorescence polarization assay (FPA) can be used, for example. The FPA technique measures the molecular orientation and mobility using polarized light and fluorescent tracer. When excited with polarized light, fluorescent tracers (e.g., FITC) attached to molecules with high apparent molecular weights (e.g., FITC-labeled peptides bound to a large protein) emit higher levels of polarized fluorescence due to their slower rates of rotation as compared to fluorescent tracers attached to smaller molecules (e.g., FITC-labeled peptides that are free in solution).
as §1, with “ligands” for “peptidomimetic macrocycles and peptidomimetic precursors”

UBA1 [2] = target: T1, UBA1; test: Hydrogen-deuterium exchange mass spectrometry with E1; type: binding; details: 10 s labeling
Experimental: HXMS analysis: Hydrogen-deuterium exchange mass spectrometry (HXMS) experiments were performed as described (Barclay, L. A. et al. Inhibition of Pro-apoptotic BAX by a noncanonical interaction mechanism. Molecular Cell 57, 873-886, doi: 10.1016/j.molcel.2015.01.014 (2015)). SAH-UBE2A was incubated alone or with the indicated molar ratio of recombinant human UBA1, UBE2D2, or vehicle control for ten minutes on ice, in buffer containing 50 mM NaCl, 5 mM MgCl2, 500 nM ubiquitin, 20 mM ATP, 5 mM DTT, 20 mM HEPES, pH 7.4. Deuterium labeling was initiated with an 18-fold dilution into D20 buffer (20 mM HEPES, 50 mM NaCl, pD 8). After 10 s of labeling, the labeling reaction was quenched with the addition of an equal volume of quenching buffer (0.8 M guanidinium chloride, 0.8% [v/v] formic acid). Samples were then injected and peptides were trapped intact and desalted on a VanGuard Pre-Column trap (2.1 mm×5 mm, ACQUITY UPLC BEH C18, 1.7 μm) for 3 min, eluted from the trap using a 5%-35% gradient of acetonitrile over 6 minutes at a flow rate of 65 μL/min, and then separated using an ACQUITY UPLC HSS T3, 1.8 μm, 1.0 mm×50 mm column on a Waters nanoACQUITY LC. The Waters Synapt G2Si mass spectrometer was operated in ion mobility mode and data analyzed. All mass spectra were processed using DynamX 3.0 (Waters Corporation). […]

## CCCC[C@H](NC(C)=O)C(=O)N[C@@H](CO)C(=O)N[C@H](C(=O)N1CCC[C@H]1C(=O)N[C@]1(C)CCCCCCC=CCCC[C@@](C)(C(=O)N[C@@H](Cc2ccccc2)C(=O)N[C@@H](CCCCN)C(=O)N[C@@H](CCCNC(=N)N)C(=O)N[C@@H](CC(C)C)C(=O)N[C@@H](CCC(N)=O)C(N)=O)NC(=O)[C@H](CCCNC(=N)N)NC(=O)[C@H](CCCC)NC(=O)[C@H](CC(C)C)NC(=O)[C@H](CCCNC(=N)N)NC(=O)[C@H](CCCNC(=N)N)NC(=O)[C@H](CCCNC(=N)N)NC1=O)[C@@H](C)O [SAH-UBE2A-11, BSTPX1RRRLBRX2FKRLQ] (Ac-[Nle]STP[R8]RRRL[Nle]R[S5]FKRLQ-NH2; staple 5-12)
UBA1 [1]
  direct binding to recombinant UBA1, fluorescence polarization: binds to UBA1 independent of ubiquitin and ATP; also recorded: direct binding of SAH-UBE2A to recombinant UBA1
UBA1 [2]
  protection of peptide from deuterium uptake by UBA1: dose-dependently protected SAH-UBE2A from deuterium uptake; also recorded: dose-responsively binding to E1
